Reference: patent US12570666B2, “Furoindazole derivatives” (Bayer Aktiengesellschaft, priority 2019, dated 2026)

molecular target: T1, human GPR84 receptor (Homo sapiens, UniProt Q9NQS5); assay: cAMP HTRF assay for identification of cellular GPR84 antagonists; assay type: cell-based; conditions: CHO-K1 cells stably expressing human GPR84; Forskolin + agonist 6-OAU (EC80); average or median values
T1 construct: frozen aliquots prepared by acCELLerate; host or cells: CHO-K1
Outline: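 Forskolin-stimulated CHO-K1 cells stably expressing human GPR84, agonist-suppressed cAMP measured by HTRF (665/620 ratio) after lysis. Compounds at 11 concentrations, 20 μM to 0.07 nM, duplicate; normalized to DMSO and no-agonist controls; IC50 by 4-parameter fit.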

T1 sequence (Q9NQS5 whole entry): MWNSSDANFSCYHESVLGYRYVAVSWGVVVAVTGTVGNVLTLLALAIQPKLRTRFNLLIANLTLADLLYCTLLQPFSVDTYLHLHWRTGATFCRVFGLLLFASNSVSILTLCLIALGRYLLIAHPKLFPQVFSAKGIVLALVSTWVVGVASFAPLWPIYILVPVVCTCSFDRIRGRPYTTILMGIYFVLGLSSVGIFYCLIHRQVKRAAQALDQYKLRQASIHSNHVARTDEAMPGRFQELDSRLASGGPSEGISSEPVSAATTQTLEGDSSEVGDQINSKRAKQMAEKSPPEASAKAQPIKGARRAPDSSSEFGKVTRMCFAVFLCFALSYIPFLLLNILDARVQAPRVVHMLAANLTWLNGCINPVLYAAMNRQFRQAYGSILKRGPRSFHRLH

Row | SMILES | IC50
1 | CC1CCC(CNC(=O)c2oc3c(c2C(F)(F)F)-c2nn(CC4COCCO4)cc2CC3)O1 (single isomer, unassigned) [Example 224-1, 2-{[(2S)-1,4-dioxan-2-yl]methyl}-N-{[(2R or 2S,5R or 5S)-5-methyloxolan-2-yl]methyl}-8-(trifluoromethyl)-4,5-dihydro-2H-furo[2,3-g]indazole-7-carboxamide] | 16 nM
2 | Cc1c(C(=O)NCc2ccccn2)oc2c1-c1nn(Cc3ccccn3)cc1CC2 [Example 21, 8-methyl-N,2-bis(pyridin-2-ylmethyl)-4,5-dihydro-2H-furo[2,3-g]indazole-7-carboxamide] | 300 nM
3 | Cc1c(C(=O)NC[C@@H]2COCCO2)oc2c1-c1nn(CCN3CCN(C(=O)OC(C)(C)C)CC3)cc1CC2 [Example 142, tert-butyl 4-[2-(7-{[(2R)-1,4-dioxan-2-ylmethyl]carbamoyl}-8-methyl-4,5-dihydro-2H-furo[2,3-g]indazol-2-yl)ethyl]piperazine-1-carboxylate] | 670 nM
4 | O=C(NC[C@@H]1COCCO1)c1oc2c(c1C(F)(F)F)-c1nn(CC3CCN(C(=O)c4ccccc4)CC3)cc1CC2 [Example 287, 2-[(1-benzoylpiperidin-4-yl)methyl]-N-{[(2R)-1,4-dioxan-2-yl]methyl}-8-(trifluoromethyl)-4,5-dihydro-2H-furo[2,3-g]indazole-7-carboxamide] | 10 nM
5 | O=C(NCc1ncco1)c1oc2c(c1C(F)(F)F)-c1nn(Cc3ccccn3)cc1C1(CCC1)C2 [Example 275, N-(1,3-Oxazol-2-ylmethyl)-2′-(pyridin-2-ylmethyl)-8′-(trifluormethyl)-2′,5′-dihydrospiro[cyclobutan-1,4′-furo[2,3-g]indazol]-7′-carboxamide] | 141 nM
6 | Cc1c(C(=O)NCc2ncco2)oc2c1-c1nn(Cc3ccccn3)cc1CC2 [Example 32, 8-methyl-N-(1,3-oxazol-2-ylmethyl)-2-(pyridin-2-ylmethyl)-4,5-dihydro-2H-furo[2,3-g]indazole-7-carboxamide] | 150 nM
7 | Cc1c(C(=O)NC[C@@H]2COCCO2)oc2c1-c1nn(C[C@@H]3CCO3)cc1CC2 [Example 100, N-[(2R)-1,4-dioxan-2-ylmethyl]-8-methyl-2-[(2S)-oxetan-2-ylmethyl]-4,5-dihydro-2H-furo[2,3-g]indazole-7-carboxamide] | 310 nM
8 | O=C(NC[C@@H]1CCCO1)c1oc2c(c1C(F)(F)F)-c1nn(CC3CCN(C(=O)C4CC4)CC3)cc1CC2 [Example 286, 2-{[1-(cyclopropanecarbonyl)piperidin-4-yl]methyl}-N-{[(2S)-oxolan-2-yl]methyl}-8-(trifluoromethyl)-4,5-dihydro-2H-furo[2,3-g]indazole-7-carboxamide] | 11 nM
9 | Cc1c(C(=O)NCC2CC(F)(F)CO2)oc2c1-c1nn(Cc3ccccn3)cc1CC2 (racemic) [Example 174] | 97 nM
10 | Cc1c(C(=O)NC[C@@H]2CCCO2)oc2c1-c1nn(Cc3ncco3)cc1CC2 [Example 188] | 223 nM
11 | O=C(NC[C@@H]1CCCO1)c1oc2c(c1C(F)(F)F)-c1nn(CC3CCN(CC4CC4)CC3)cc1CC2 [Example 307, 2-{[1-(cyclopropylmethyl)piperidin-4-yl]methyl}-N-{[(2S)-oxolan-2-yl]methyl}-8-(trifluoromethyl)-4,5-dihydro-2H-furo[2,3-g]indazole-7-carboxamide] | 62 nM
12 | CC(=O)N1CCC(Cn2cc3c(n2)-c2c(oc(C(=O)NC[C@@H]4COCCO4)c2C(F)(F)F)C[C@H]3C)CC1 (single isomer, unassigned) [Example 294, (4R or 4S)-2-[(1-acetylpiperidin-4-yl)methyl]-N-{[(2R)-1,4-dioxan-2-yl]methyl}-4-methyl-8-(trifluoromethyl)-4,5-dihydro-2H-furo[2,3-g]indazole-7-carboxamide] | 8 nM
13 | O=C(NC[C@@H]1COCCO1)c1oc2c(c1C(F)(F)F)-c1nn(C[C@@H]3COCCO3)cc1CC2 [Example 220, N,2-bis{[(2R)-1,4-dioxan-2-yl]methyl}-8-(trifluoromethyl)-4,5-dihydro-2H-furo[2,3-g]indazole-7-carboxamide] | 18 nM

More lines, in order of falling IC50, values ahead:

Row | IC50 | SMILES
14 | 2600 nM | Cc1c(C(=O)NC[C@H]2OCC[C@H]2C)oc2c1-c1nn(Cc3ccccn3)cc1CC2 (racemic) [Example 177]
15 | 800 nM | Cc1c(C(=O)NCc2ccon2)oc2c1-c1nn(Cc3ccccn3)cc1CC2 [Example 6, 8-methyl-N-(1,2-oxazol-3-ylmethyl)-2-(pyridin-2-ylmethyl)-4,5-dihydro-2H-furo[2,3-g]indazole-7-carboxamide]
16 | 620 nM | Cc1c(C(=O)NC[C@@H]2CCCO2)oc2c1-c1nn(C[C@H]3CCO3)cc1CC2 [Example 97, 8-methyl-2-[(2R)-oxetan-2-ylmethyl]-N-[(2S)-tetrahydrofuran-2-ylmethyl]-4,5-dihydro-2H-furo[2,3-g]indazole-7-carboxamide]
17 | 440 nM | Cc1cc(Cn2cc3c(n2)-c2c(oc(C(=O)NC[C@@H]4COCCO4)c2C)CC3)cc(C)n1 [Example 82, 2-[(2,6-dimethylpyridin-4-yl)methyl]-N-[(2R)-1,4-dioxan-2-ylmethyl]-8-methyl-4,5-dihydro-2H-furo[2,3-g]indazole-7-carboxamide]
18 | 195 nM | C[C@@H]1Cc2oc(C(=O)NCc3cnc(C(F)(F)F)nc3)c(C(F)(F)F)c2-c2nn(C[C@H]3COCCO3)cc21 (single isomer, unassigned) [Example 262, (4R or 4S)-2-{[(2S)-1,4-dioxan-2-yl]methyl}-4-methyl-8-(trifluoromethyl)-N-{[2-(trifluoromethyl)pyrimidin-5-yl]methyl}-4,5-dihydro-2H-furo[2,3-g]indazole-7-carboxamide]
19 | 190 nM | Cc1c(C(=O)NC[C@@H]2CCCO2)oc2c1-c1nn(Cc3ccc(C(F)(F)F)cn3)cc1CC2 [Example 57, 8-methyl-N-[(2S)-tetrahydrofuran-2-ylmethyl]-2-{[5-(trifluoromethyl)pyridin-2-yl]methyl}-4,5-dihydro-2H-furo[2,3-g]indazole-7-carboxamide]
20 | 57 nM | Cc1cc(Cn2cc3c(n2)-c2c(oc(C(=O)NC[C@@H]4COCCO4)c2C)CC3)ccn1 [Example 80, N-[(2R)-1,4-dioxan-2ylmethyl]-8-methyl-2-[(2-methylpyridin-4-yl)methyl]-4,5-dihydro-2H-furo[2,3-g]indazole-7-carboxamide]
21 | 32 nM | Cc1ccc(CNC(=O)c2oc3c(c2C)-c2nn(CC4COc5ncccc5O4)cc2CC3)cc1 (centres unmarked) [Example 53]
22 | 20 nM | O=C(NCC1CC(F)(F)CO1)c1oc2c(c1C(F)(F)F)-c1nn(C[C@H]3COCCO3)cc1CC2 (mixture of isomers) [Example 222, N-{[(2±)-4,4-difluorooxolan-2-yl]methyl}-2-{[(2S)-1,4-dioxan-2-yl]methyl}-8-(trifluoromethyl)-4,5-dihydro-2H-furo[2,3-g]indazole-7-carboxamide]
23 | 9 nM | Cc1ccc(Cn2cc3c(n2)-c2c(oc(C(=O)NC[C@@H]4COCCO4)c2C(F)(F)F)CC3C)cn1 (mixture of isomers) [Example 252, (4±)-N-{I(2R)-1,4-dioxan-2-yl]methyl)-4-methyl-2-[(6-methylpyridin-3-yl)methyl]-8-(trifluoromethyl)-4,5-dihydro-2H-furo[2,3-g]indazole-7-carboxamide]
